Drawing on US12528811B2, “Substituted cyclopenta[2,1-b:5,1-b’]dipyrroles as Janus kinase (JAK) inhibitors” (UNIVERSITÄT BERN, priority 2019, dated 2026), this text covers IC50 for two molecules.

Type in all cases: biochemical
In assay [1] the target is JAK1 (Homo sapiens, UniProt P23458). The assay can be described thus: JAK1 enzymatic kinase inhibition assay. As to conditions: read-out: Kinase inhibitory activities given in IC50 (nM), JAK1.
Assay [2] addresses JAK2 (Homo sapiens, UniProt O60674). Nature of the assay: JAK2 enzymatic kinase inhibition assay. As to conditions: read-out: Kinase inhibitory activities given in IC50 (nM), JAK2.
For assay [3], the target named is T1, JAK3 (Homo sapiens, UniProt P52333).
T1 sequence (P52333 1-1124): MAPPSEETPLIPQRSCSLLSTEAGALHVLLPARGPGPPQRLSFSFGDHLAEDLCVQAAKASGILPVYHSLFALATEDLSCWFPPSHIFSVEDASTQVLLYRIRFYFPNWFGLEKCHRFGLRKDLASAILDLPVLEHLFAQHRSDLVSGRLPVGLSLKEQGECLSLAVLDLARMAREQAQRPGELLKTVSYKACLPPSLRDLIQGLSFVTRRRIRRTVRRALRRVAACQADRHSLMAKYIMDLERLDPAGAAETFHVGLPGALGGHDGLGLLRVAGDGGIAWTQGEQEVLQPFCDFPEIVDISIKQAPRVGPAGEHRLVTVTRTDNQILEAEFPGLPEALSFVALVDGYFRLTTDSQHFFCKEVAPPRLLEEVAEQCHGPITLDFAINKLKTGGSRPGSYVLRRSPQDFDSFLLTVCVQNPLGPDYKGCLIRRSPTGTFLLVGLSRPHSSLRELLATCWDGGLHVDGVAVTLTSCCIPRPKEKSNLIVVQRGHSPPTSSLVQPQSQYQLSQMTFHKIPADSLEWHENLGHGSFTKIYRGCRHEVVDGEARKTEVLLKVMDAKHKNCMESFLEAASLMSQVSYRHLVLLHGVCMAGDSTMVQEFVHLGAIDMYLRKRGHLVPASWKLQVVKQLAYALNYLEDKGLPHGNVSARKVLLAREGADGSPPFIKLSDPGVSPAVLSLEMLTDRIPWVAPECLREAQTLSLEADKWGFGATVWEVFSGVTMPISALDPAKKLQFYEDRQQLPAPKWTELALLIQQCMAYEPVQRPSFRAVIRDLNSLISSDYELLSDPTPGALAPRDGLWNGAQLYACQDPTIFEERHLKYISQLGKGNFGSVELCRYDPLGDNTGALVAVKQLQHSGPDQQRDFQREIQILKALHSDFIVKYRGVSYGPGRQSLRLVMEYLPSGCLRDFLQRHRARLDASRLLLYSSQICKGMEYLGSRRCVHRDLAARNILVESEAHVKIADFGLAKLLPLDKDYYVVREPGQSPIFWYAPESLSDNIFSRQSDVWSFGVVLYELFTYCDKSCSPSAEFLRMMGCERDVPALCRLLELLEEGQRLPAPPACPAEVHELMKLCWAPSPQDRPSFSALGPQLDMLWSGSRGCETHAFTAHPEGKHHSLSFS
The assay can be described thus: JAK3 enzymatic kinase inhibition assay. The following applies: read-out: Kinase inhibitory activities given in IC50 (nM), JAK3.

In assay [4] the target is TYK2 (Homo sapiens, UniProt P29597). The assay can be described thus: TYK2 enzymatic kinase inhibition assay. The following applies: read-out: Kinase inhibitory activities given in IC50 (nM), TYK2.
Chain of TYK2 (P29597 whole entry): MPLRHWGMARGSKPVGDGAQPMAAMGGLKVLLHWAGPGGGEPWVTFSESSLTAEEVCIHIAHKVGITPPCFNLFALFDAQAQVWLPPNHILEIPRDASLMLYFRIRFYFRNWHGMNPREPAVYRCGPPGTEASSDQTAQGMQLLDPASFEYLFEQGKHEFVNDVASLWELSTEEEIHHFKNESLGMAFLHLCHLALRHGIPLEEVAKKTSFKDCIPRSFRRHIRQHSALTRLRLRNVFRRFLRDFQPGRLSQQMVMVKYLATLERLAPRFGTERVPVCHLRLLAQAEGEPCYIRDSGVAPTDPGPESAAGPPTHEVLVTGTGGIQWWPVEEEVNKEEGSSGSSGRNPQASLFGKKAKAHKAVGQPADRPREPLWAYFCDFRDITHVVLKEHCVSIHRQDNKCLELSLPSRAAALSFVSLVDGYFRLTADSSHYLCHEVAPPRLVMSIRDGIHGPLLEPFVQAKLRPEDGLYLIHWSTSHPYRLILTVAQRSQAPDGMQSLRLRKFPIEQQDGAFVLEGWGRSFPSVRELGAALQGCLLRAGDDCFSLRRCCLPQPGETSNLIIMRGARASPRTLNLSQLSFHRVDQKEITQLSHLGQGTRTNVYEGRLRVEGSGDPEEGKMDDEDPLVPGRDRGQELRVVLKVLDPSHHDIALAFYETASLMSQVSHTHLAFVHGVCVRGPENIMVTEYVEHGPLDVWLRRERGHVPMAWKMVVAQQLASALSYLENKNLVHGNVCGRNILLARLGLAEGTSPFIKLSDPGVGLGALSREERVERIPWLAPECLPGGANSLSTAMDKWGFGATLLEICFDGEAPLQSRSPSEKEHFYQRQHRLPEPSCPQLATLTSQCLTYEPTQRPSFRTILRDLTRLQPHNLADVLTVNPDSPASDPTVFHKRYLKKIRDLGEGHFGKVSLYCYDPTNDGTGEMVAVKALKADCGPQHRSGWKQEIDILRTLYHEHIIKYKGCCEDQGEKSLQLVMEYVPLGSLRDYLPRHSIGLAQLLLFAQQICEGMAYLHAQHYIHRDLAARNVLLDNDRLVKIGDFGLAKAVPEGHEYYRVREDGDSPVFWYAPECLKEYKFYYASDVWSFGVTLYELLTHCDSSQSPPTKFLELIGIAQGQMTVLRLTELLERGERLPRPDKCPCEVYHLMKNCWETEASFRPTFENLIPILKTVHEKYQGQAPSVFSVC

Chain of JAK2 (O60674 whole entry): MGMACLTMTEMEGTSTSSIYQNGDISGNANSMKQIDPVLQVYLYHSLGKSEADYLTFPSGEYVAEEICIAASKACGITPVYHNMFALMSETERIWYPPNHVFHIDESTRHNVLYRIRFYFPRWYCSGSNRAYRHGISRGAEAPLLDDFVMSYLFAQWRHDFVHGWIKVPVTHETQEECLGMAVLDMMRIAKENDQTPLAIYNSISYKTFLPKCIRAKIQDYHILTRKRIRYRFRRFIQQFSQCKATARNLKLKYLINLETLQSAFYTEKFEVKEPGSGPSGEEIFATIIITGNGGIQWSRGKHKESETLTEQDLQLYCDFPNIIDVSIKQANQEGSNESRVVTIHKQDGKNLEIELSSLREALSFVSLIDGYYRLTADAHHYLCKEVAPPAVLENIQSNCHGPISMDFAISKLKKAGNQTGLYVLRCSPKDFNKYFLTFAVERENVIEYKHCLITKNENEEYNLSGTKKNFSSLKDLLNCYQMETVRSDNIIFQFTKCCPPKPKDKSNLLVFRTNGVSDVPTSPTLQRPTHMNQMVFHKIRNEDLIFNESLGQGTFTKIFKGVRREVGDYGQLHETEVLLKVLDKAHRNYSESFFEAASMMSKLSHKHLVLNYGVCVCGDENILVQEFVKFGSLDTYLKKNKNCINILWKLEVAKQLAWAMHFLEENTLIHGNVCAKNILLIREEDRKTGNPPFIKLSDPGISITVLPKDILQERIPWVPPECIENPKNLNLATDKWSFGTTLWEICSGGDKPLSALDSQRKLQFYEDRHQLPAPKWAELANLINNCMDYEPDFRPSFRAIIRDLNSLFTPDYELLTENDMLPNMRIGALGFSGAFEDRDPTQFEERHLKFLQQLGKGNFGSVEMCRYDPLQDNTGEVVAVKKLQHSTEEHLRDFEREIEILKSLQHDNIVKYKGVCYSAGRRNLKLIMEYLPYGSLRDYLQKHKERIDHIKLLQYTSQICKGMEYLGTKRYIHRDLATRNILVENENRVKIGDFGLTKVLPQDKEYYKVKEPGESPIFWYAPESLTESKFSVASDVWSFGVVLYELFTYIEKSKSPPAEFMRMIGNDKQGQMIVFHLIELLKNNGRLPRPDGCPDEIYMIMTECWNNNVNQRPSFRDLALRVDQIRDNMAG
Chain of JAK1 (P23458 whole entry): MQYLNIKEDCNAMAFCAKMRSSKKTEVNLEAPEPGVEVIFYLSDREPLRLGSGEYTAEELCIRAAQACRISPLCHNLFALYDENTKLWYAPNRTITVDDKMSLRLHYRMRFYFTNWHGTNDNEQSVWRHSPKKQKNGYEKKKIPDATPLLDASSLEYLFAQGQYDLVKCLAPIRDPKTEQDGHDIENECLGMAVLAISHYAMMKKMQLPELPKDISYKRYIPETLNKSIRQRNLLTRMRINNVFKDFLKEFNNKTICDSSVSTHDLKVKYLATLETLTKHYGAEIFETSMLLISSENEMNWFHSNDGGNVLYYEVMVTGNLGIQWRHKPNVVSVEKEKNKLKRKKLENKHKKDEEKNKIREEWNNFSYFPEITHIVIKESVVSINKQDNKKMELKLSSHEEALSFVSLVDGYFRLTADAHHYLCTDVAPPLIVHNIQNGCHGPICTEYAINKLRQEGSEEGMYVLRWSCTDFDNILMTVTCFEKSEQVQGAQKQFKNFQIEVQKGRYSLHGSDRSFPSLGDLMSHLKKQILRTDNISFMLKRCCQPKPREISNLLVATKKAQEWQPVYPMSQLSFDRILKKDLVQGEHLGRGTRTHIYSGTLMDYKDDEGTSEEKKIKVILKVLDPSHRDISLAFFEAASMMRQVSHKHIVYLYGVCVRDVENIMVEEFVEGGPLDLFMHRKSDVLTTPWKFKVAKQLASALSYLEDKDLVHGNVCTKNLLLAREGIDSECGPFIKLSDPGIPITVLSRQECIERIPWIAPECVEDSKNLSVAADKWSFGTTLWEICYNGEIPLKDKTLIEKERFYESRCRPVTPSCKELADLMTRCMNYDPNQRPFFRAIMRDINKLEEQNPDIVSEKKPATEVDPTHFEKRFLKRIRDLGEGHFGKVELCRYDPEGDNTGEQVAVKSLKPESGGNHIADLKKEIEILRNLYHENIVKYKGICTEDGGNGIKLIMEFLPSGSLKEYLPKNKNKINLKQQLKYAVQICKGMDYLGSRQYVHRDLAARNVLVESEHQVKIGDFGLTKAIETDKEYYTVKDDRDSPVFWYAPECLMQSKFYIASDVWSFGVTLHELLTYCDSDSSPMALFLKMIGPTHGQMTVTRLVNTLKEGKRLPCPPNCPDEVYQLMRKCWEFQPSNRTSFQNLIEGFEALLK

As a reminder, the IC50 is the point on the concentration scale where inhibition reaches its midpoint. Take `N#CCC(=O)N1CCC23CCN(c4ncnc5[nH]ccc45)C2CCC13` (centres unmarked) [KMC420, 3-(6-(7H-pyrrolo[2,3-d]pyrimidin-4-yl)octahydrocyclopenta[2,1-b:5,1-b′]dipyrrol-3(3aH)-yl)-3-oxopropanenitrile]: the IC50 stood at 1 nM in assay [1], 13 nM in assay [2], 29 nM in assay [3] and 26 nM in assay [4].
On the same counts, the results for `C=CC(=O)N1CCC23CCN(c4ncnc5[nH]ccc45)C2CCC13` (centres unmarked) [KMC423, 1-(6-(7H-pyrrolo[2,3-d]pyrimidin-4-yl)octahydrocyclopenta[2,1-b:5,1-b′]dipyrrol-3(3aH)-yl)prop-2-en-1-one] are 30 nM, 53 nM, 9 nM and 183 nM.
